Assay results: patent US5536847A, “4-desoxy-4-epipodophyllotoxin derivative or pharmaceutically acceptable salt thereof” (Taiho Pharmaceutical Co. Ltd., priority 1991, dated 1996)
Like-named read-outs stand apart in the source and are kept apart here.

Key:
[1] = system: P388 mouse leukemia cell line; test: Cytocidal effect on P388 mouse leukemia cells (crystal violet cytometry); format: cell-based; settings: read-out: ED50 (concentration causing a 50% decrease in cell count as compared with the control)
Protocol: A 96-well plate was inoculated with 1×10^3 cells/well of P388 mouse leukemia cell line and incubated for 24 hours. The test compound was dissolved in dimethylformamide and the solution was diluted with medium to various concentrations and added to respective wells. The plate was further incubated for 3 days, after which it was fixed with glutaraldehyde and stained with crystal violet for cytometry. The cytocidal effect of each compound was expressed as the concentration causing a 50% decrease in cell count (ED50) as compared with the control.

[2] = background art statement; cited from earlier work
[3] = system: L1210 mouse leukemia cell line; test: Life-prolonging effect in CDF1 mice intraperitoneally transplanted with L1210 leukemia; format: in vivo; settings: 5 days, L1210, male CDF1 mice, vs vehicle group
Protocol: L1210 mouse leukemia cell line, 1×10^5 cells/mouse, was intraperitoneally transplanted into 7-weeks-old male CDF1 mice (6 per group). The test compound, in the varying amounts shown below in Table 4, was dissolved in physiological saline containing 3.5% of dimethyl sulfoxide and 6.5% of Tween 80 and the solution was intraperitoneally administered for 5 days following the transplantation of cells for a total of 5 times. The percent life-prolonging effect of the compound was determined by comparison with a group given physiological saline containing 3.5% of dimethyl sulfoxide and 6.5% of Tween 80 only.

[4] = 72 h, P388 mouse leukemia cells, 1×10^3 cells/well, 3 days incubation with compound

Compound	IC50 ([1]; Mus musculus, P388, 72 h) [nM]	further results
COc1cc(C2c3cc4c(cc3C(CCN(C)CCN(C)C)C3COC(=O)C23)OCO4)cc(OC)c1O (stereo not drawn) [Compound 35]		IC50 [1, 4]: 1 nM
COc1cc([C@@H]2c3cc4c(cc3[C@@H](O[C@@H]3O[C@@H]5CO[C@@H](C)O[C@H]5[C@H](O)[C@H]3O)[C@H]3COC(=O)[C@H]23)OCO4)cc(OC)c1O [etoposide]		serious adverse reactions [2]: may cause serious adverse reactions including leukopenia, thrombopenia, alopecia, nausea and vomiting
COc1cc(C2c3cc4c(cc3C(CCN3CCCCC3)C3COC(=O)C23)OCO4)cc(OC)c1O (stereo not drawn) [Compound 44]	12	
COc1cc(C2c3cc4c(cc3C(CCN(C)CCN3CCCCC3)C3COC(=O)C23)OCO4)cc(OC)c1O (stereo not drawn) [Compound 43]	4.1	Life-prolonging effect ([3]; 5 mg/kg/day i.p.): 257%
COc1cc(C2c3cc4c(cc3C(CCN3CCC(N5CCCCC5)CC3)C3COC(=O)C23)OCO4)cc(OC)c1O (stereo not drawn) [Compound 45]	3.3	Life-prolonging effect ([3]; 2.5 mg/kg/day i.p.): 231%
COc1cc(C2c3cc4c(cc3C(CC=O)C3COC(=O)C23)OCO4)cc(OC)c1O (stereo not drawn) [Compound 5, 4-desoxy-4'-demethyl-4-formylmethyl-4-epipodophyllotoxin]	120	
COc1cc(C2c3cc4c(cc3C(CCNCCN(C)C)C3COC(=O)C23)OCO4)cc(OC)c1O (stereo not drawn) [Compound 52]	40	
COc1cc(C2c3cc4c(cc3C(CCN(C)N(C)C)C3COC(=O)C23)OCO4)cc(OC)c1O (stereo not drawn) [Compound 33]	20	
COc1cc([C@@H]2c3cc4c(cc3[C@@H](O[C@@H]3O[C@@H]5CO[C@@H](c6cccs6)O[C@H]5[C@H](O)[C@H]3O)[C@H]3COC(=O)[C@H]23)OCO4)cc(OC)c1O [teniposide]		serious adverse reactions [2]: may cause serious adverse reactions including leukopenia, thrombopenia, alopecia, nausea and vomiting
COc1cc(C2c3cc4c(cc3C(CCN3CCOCC3)C3COC(=O)C23)OCO4)cc(OC)c1O (stereo not drawn) [Compound 36]		Life-prolonging effect ([3]; 10 mg/kg/day i.p.): 81%
CCN(CC)CCN(C)CCC1c2cc3c(cc2C(c2cc(OC)c(O)c(OC)c2)C2C(=O)OCC12)OCO3 (stereo not drawn) [Compound 47]		IC50 [1, 4]: 6.3 nM
COc1cc(C2c3cc4c(cc3C(CCN3CCN(C)CC3)C3COC(=O)C23)OCO4)cc(OC)c1O (stereo not drawn) [Compound 34]	3	
COc1cc(C2c3cc4c(cc3C(CC=O)C3COC(=O)C23)OCO4)cc(OC)c1OC(=O)OCc1ccccc1 (stereo not drawn) [Compound 3, 4-desoxy-4'-demethyl-4'-O-benzyloxycarbonyl-4-formylmethyl-4-epipodophyllotoxin]	450	
COc1cc(C2c3cc4c(cc3C(CCCN(C)C)C3COC(=O)C23)OCO4)cc(OC)c1O (stereo not drawn) [Compound 28, 4-desoxy-4'-demethyl-4-(3-N,N-dimethylamino-1-propyl)-4-epipodophyllotoxin]	12	
COc1cc(C2c3cc4c(cc3C(CCN(C)N3CCN(C)CC3)C3COC(=O)C23)OCO4)cc(OC)c1O (stereo not drawn) [Compound 53]	4.3	
CCCCCCN(C)CCC1c2cc3c(cc2C(c2cc(OC)c(O)c(OC)c2)C2C(=O)OCC12)OCO3 (stereo not drawn) [Compound 38]	19	
